In brackets after ≈: the same amount, converted by molar mass.
Test system: colon 38 cells
Test: In vitro antitumor test against colon 38 cells (MTT)
Format: cell-based
Conditions: 72 h, concentration at which 50% of mouse colon 38 cells are inhibited, 3 days
Protocol: In vitro Antitumor Test Against Colon 38 Cells (Mouse Colon Cancer Cells)
2.5×10^3 (0.1 ml) of colon 38 cells suspended in RPMI1640 medium (a product of Sanko Junyaku) containing 10% of fetal bovine serum, penicillin (100 units/ml), streptomycin (100 μg/ml), mercaptoethanol (5×10^-5 M) and sodium pyruvate (1 mM) were inoculated in each well of a 96-well flat-bottomed microplate, and cultured in an incubator containing 5% of carbon dioxide at 37° C. for one day.
A test compound according to the present invention was dissolved in dimethyl sulfoxide in a concentration of 20 mg/ml and the resulting solution was diluted with 10% fetal bovine serum/RPMI1640 medium to a concentration of 200 μg/ml. The resulting solution was diluted with 10% fetal bovine serum/RPMI1640 medium to prepare 3-fold serial dilutions with the maximum concentration being 200 μg/ml. The obtained dilutions were each poured into the well of the above-described culture plate in an amount of 0.1 ml. The resulting plate was cultured at 37° C. in an incubator containing 5% of carbon dioxide for 3 days.
Thereafter, a solution of MTT[3-(4,5-dimethylthiazol-2-yl)-2,5-diphenyltetrazolium bromide] (having a concentration of 3.3 mg/ml) was added to each well in an amount of 0.05 ml. The resulting mixtures were further incubated for 2 hours. The supernatant was removed from each well by suction. Formed formazan was dissolved in 0.1 ml of dimethyl sulfoxide. The absorbance at 540 nm was determined with a microplate reader and the absorbance was taken as an index of the number of viable cells. The inhibitory ratio of the test compound was calculated according to the following formula to determine the IC50 of the test compound, with the IC50 referring to the concentration at which 50% of mouse colon 38 cells are inhibited: [formula] T: absorbance of well containing a test compound C: absorbance of well containing no test compound

Structure (SMILES)	IC50
O=[N+]([O-])c1ccc(S(=O)(=O)Nc2cccc3c(Cl)c[nH]c23)cc1 [Example 2]	0.54 µg/mL (≈ 1.54 µM)
CS(=O)(=O)Nc1ccc(S(=O)(=O)Nc2cccc3c(Cl)c[nH]c23)cc1 [Example 4]	0.26 µg/mL (≈ 0.65 µM)
O=S(=O)(Nc1cccc2c(Cl)c[nH]c12)c1cccc(Cl)c1 [Example 7]	0.22 µg/mL (≈ 0.645 µM)
Nc1ccc(S(=O)(=O)Nc2ccc(Cl)c3c(Cl)c[nH]c23)cc1 [Example 8]	0.09 µg/mL (≈ 0.253 µM)
COc1ccc(S(=O)(=O)Nc2cccc3cn[nH]c23)cc1 [Example 13]	0.63 µg/mL (≈ 2.08 µM)
O=S(=O)(Nc1cccc2c(Cl)c[nH]c12)c1ccc(Cl)nc1 [Example 14]	0.23 µg/mL (≈ 0.672 µM)
CSCc1ccc(S(=O)(=O)Nc2cccc3c(Cl)c[nH]c23)cc1 [Example 15]	0.35 µg/mL (≈ 0.954 µM)
N#Cc1c[nH]c2c(NS(=O)(=O)c3ccc(Cl)nc3)cccc12 [Example 18]	0.11 µg/mL (≈ 0.331 µM)
NS(=O)(=O)c1ccc(S(=O)(=O)Nc2cccc3c(Cl)c[nH]c23)cc1 [Example 19]	0.1 µg/mL (≈ 0.259 µM)
NS(=O)(=O)c1ccc(S(=O)(=O)Nc2ccc(Cl)c3c(Cl)c[nH]c23)cc1 [Example 21]	0.12 µg/mL (≈ 0.286 µM)
CSc1ccc(S(=O)(=O)Nc2cccc3c(Cl)c[nH]c23)cc1 [Example 22]	0.69 µg/mL (≈ 1.96 µM)
CS(=O)(=O)c1ccc(S(=O)(=O)Nc2cccc3c(Cl)c[nH]c23)cc1 [Example 23]	0.13 µg/mL (≈ 0.338 µM)
C[S+]([O-])c1ccc(S(=O)(=O)Nc2cccc3c(Cl)c[nH]c23)cc1 (stereo not drawn) [Example 24]	0.09 µg/mL (≈ 0.244 µM)
CC(=O)Nc1ccc(S(=O)(=O)Nc2ccc(C)c3c(Cl)c[nH]c23)cc1 [Example 26]	0.17 µg/mL (≈ 0.45 µM)
Cc1ccc(NS(=O)(=O)c2ccc(N)cc2)c2[nH]cc(Cl)c12 [Example 27]	0.1 µg/mL (≈ 0.298 µM)
N#Cc1ccc(S(=O)(=O)Nc2cccc3c(C#N)c[nH]c23)cc1 [Example 28]	0.12 µg/mL (≈ 0.372 µM)
N#Cc1ccc(NS(=O)(=O)c2ccc(N)cc2)c2[nH]cc(Cl)c12 [Example 32]	0.17 µg/mL (≈ 0.49 µM)
Nc1ccc(S(=O)(=O)Nc2cccc3c(Cl)c[nH]c23)cn1 [Example 33]	0.1 µg/mL (≈ 0.31 µM)
C[S+]([O-])Cc1ccc(S(=O)(=O)Nc2cccc3c(Cl)c[nH]c23)cc1 (stereo not drawn) [Example 34]	0.14 µg/mL (≈ 0.366 µM)
NS(=O)(=O)CCc1ccc(S(=O)(=O)Nc2cccc3c(Cl)c[nH]c23)cc1 [Example 35]	0.14 µg/mL (≈ 0.338 µM)
CS(=O)(=O)CCc1ccc(S(=O)(=O)Nc2cccc3c(Cl)c[nH]c23)cc1 [Example 36]	0.11 µg/mL (≈ 0.266 µM)

Structure (SMILES)	IC50
N#Cc1c[nH]c2c(NS(=O)(=O)c3ccc(N)nc3)cccc12 [Example 37]	0.19 µg/mL (≈ 0.606 µM)
CC(=O)Nc1ccc(S(=O)(=O)Nc2cccc3c(Cl)c[nH]c23)cc1Cl [Example 38]	0.57 µg/mL (≈ 1.43 µM)
N#Cc1c[nH]c2c(NS(=O)(=O)c3ccc(Cl)s3)cccc12 [Example 40]	0.27 µg/mL (≈ 0.799 µM)
COC(=O)Nc1ccc(S(=O)(=O)Nc2cccc3c(Cl)c[nH]c23)cc1 [Example 41]	0.57 µg/mL (≈ 1.5 µM)
CONS(=O)(=O)c1ccc(S(=O)(=O)Nc2cccc3c(Cl)c[nH]c23)cc1 [Example 43]	0.47 µg/mL (≈ 1.13 µM)
Cc1c(Cl)cccc1S(=O)(=O)Nc1cccc2c(C#N)c[nH]c12 [Example 45]	0.44 µg/mL (≈ 1.27 µM)
CC(C)Nc1ccc(S(=O)(=O)Nc2cccc3c(Cl)c[nH]c23)cn1 [Example 46]	0.47 µg/mL (≈ 1.29 µM)
CN(C)CCNc1ccc(S(=O)(=O)Nc2cccc3c(Cl)c[nH]c23)cn1 [Example 47]	0.22 µg/mL (≈ 0.559 µM)
N#Cc1c[nH]c2c(NS(=O)(=O)c3ccco3)cccc12 [Example 48]	0.23 µg/mL (≈ 0.801 µM)
CN(C)S(=O)(=O)Nc1ccc(S(=O)(=O)Nc2cccc3c(Cl)c[nH]c23)cc1 [Example 49]	0.32 µg/mL (≈ 0.746 µM)
Cc1c[nH]c2c(NS(=O)(=O)c3ccc(S(C)(=O)=O)cc3)cccc12 [Example 50]	0.22 µg/mL (≈ 0.604 µM)
N#Cc1cccc(S(=O)(=O)Nc2cccc3c(C#N)c[nH]c23)c1 [Example 51]	0.09 µg/mL (≈ 0.279 µM)
CN(c1ccc(S(=O)(=O)Nc2cccc3c(Cl)c[nH]c23)cc1)S(C)(=O)=O [Example 52]	0.14 µg/mL (≈ 0.338 µM)
CS(=O)(=O)NCc1ccc(S(=O)(=O)Nc2cccc3c(Cl)c[nH]c23)cc1 [Example 53]	0.12 µg/mL (≈ 0.29 µM)
O=S(=O)(Nc1cccc2c(Cl)c[nH]c12)c1ccc(S(=O)(=O)N2CCCC2)cc1 [Example 54]	0.51 µg/mL (≈ 1.16 µM)
Cn1cnc(S(=O)(=O)Nc2cccc3c(C#N)c[nH]c23)c1 [Example 55]	0.59 µg/mL (≈ 1.96 µM)
O=S(=O)(Nc1cccc2c(Cl)c[nH]c12)c1ccc(NCCO)nc1 [Example 56]	0.2 µg/mL (≈ 0.545 µM)
O=S(=O)(Nc1cccc2c(Cl)c[nH]c12)c1ccc(S)nc1 [Example 57]	0.66 µg/mL (≈ 1.94 µM)
O=S(=O)(Nc1cccc2c(Cl)c[nH]c12)c1ccc(NC2CC2)nc1 [Example 59]	0.54 µg/mL (≈ 1.49 µM)
Cc1cncc(S(=O)(=O)Nc2cccc3c(C#N)c[nH]c23)c1 [Example 60]	0.08 µg/mL (≈ 0.256 µM)
CNS(=O)(=O)c1ccc(S(=O)(=O)Nc2cccc3c(Cl)c[nH]c23)cc1 [Example 61]	0.24 µg/mL (≈ 0.6 µM)

Structure (SMILES)	IC50
CS(=O)(=O)NCCc1ccc(S(=O)(=O)Nc2cccc3c(Cl)c[nH]c23)cc1 [Example 62]	0.18 µg/mL (≈ 0.421 µM)
NS(=O)(=O)Cc1ccc(S(=O)(=O)Nc2cccc3c(Cl)c[nH]c23)cc1 [Example 63]	0.12 µg/mL (≈ 0.3 µM)
NC(=S)c1ccc(S(=O)(=O)Nc2cccc3c(Cl)c[nH]c23)cc1 [Example 64]	0.23 µg/mL (≈ 0.629 µM)
N#Cc1c[nH]c2c(NS(=O)(=O)c3ccc(Br)cn3)cccc12 [Example 65]	0.2 µg/mL (≈ 0.53 µM)
CC(=O)c1c[nH]c2c(NS(=O)(=O)c3cccc(Cl)c3)cccc12 [Example 67]	0.87 µg/mL (≈ 2.49 µM)
N#Cc1c[nH]c2c(NS(=O)(=O)c3ccc(N)cc3)cc(Br)cc12 [Example 68]	0.57 µg/mL (≈ 1.46 µM)
CCNS(=O)(=O)c1ccc(S(=O)(=O)Nc2cccc3c(Cl)c[nH]c23)cc1 [Example 69]	0.47 µg/mL (≈ 1.14 µM)
CCS(=O)(=O)Nc1ccc(S(=O)(=O)Nc2cccc3c(Cl)c[nH]c23)cc1 [Example 70]	0.42 µg/mL (≈ 1.01 µM)
N#CCCNc1ccc(S(=O)(=O)Nc2cccc3c(Cl)c[nH]c23)cn1 [Example 71]	0.23 µg/mL (≈ 0.612 µM)
CNC(=O)c1ccc(S(=O)(=O)Nc2cccc3c(Cl)c[nH]c23)cc1 [Example 72]	0.15 µg/mL (≈ 0.412 µM)
CS(=O)(=O)Cc1ccc(S(=O)(=O)Nc2cccc3c(Cl)c[nH]c23)cc1 [Example 73]	0.11 µg/mL (≈ 0.276 µM)
CN(C)S(=O)(=O)c1ccc(S(=O)(=O)Nc2cccc3c(Cl)c[nH]c23)cc1 [Example 74]	0.36 µg/mL (≈ 0.87 µM)
O=C(c1ccc(S(=O)(=O)Nc2cccc3c(Cl)c[nH]c23)cc1)N1CCCC1 [Example 75]	0.28 µg/mL (≈ 0.693 µM)
NS(=O)(=O)Cc1ccc(S(=O)(=O)Nc2ccc(Cl)c3c(Cl)c[nH]c23)cc1 [Example 77]	0.17 µg/mL (≈ 0.391 µM)
CS(=O)(=O)CCc1ccc(S(=O)(=O)Nc2cccc3c(C#N)c[nH]c23)cc1 [Example 78]	0.26 µg/mL (≈ 0.644 µM)
CC(=O)N(C)c1ccc(S(=O)(=O)Nc2cccc3c(Cl)c[nH]c23)cc1 [Example 79]	0.09 µg/mL (≈ 0.238 µM)
O=S(=O)(Nc1cccc2c(Cl)c[nH]c12)c1ccc(O)nc1 [Example 80]	0.19 µg/mL (≈ 0.587 µM)
CN(CCc1ccc(S(=O)(=O)Nc2cccc3c(Cl)c[nH]c23)cc1)S(C)(=O)=O [Example 81]	0.25 µg/mL (≈ 0.566 µM)
CN(Cc1ccc(S(=O)(=O)Nc2cccc3c(Cl)c[nH]c23)cc1)S(C)(=O)=O [Example 83]	0.27 µg/mL (≈ 0.631 µM)

Test system: HCT116
Test: animal or person
Conditions: Mus musculus, HCT-116, ip, 504 h; 50 mg/kg/day i.p., once a day for 4 days; nude mice; tumor weight on 21st day; read-out: Growth inhibition ratio
Text: In vivo Antitumor Test Against HCT116 (Human Colon Cancer)
HCT116 (5 to 8×10^6) was subcutaneously transplanted to the flank of each nude mouse (BALB/c·nu/nu, aged 7 to 8 weeks, female). A test compound according to the present invention was suspended in a physiological saline containing 3.5% of dimethyl sulfoxide and 6.5% of Tween 80 and the obtained suspension was intraperitoneally administered to the mice treated above once a day in a predetermined dose for 4 days after the time at which the tumor volume had increased to about 100 mm^3, which was about 7 days after the transplantation. On the other hand, only a physiological saline containing 3.5% of dimethyl sulfoxide and 6.5% of Tween 80 was intraperitoneally administered to the mice of the control group. The control group was composed of ten mice, while each treated group was composed of five mice. On the 21st day after the initiation of administration, the tumor was extirpated from each mouse to determine its weight. The tumor growth inhibition ratio was determined by the following formula: [formula] T: average weight of tumor of the treated group C: average weight of tumor of the control group

Structure (SMILES)	inhibition in vivo at 50 mg/kg
NS(=O)(=O)c1ccc(S(=O)(=O)Nc2cccc3c(Cl)c[nH]c23)cc1 [Example 19]	88%
Nc1ccc(S(=O)(=O)Nc2cccc3c(Cl)c[nH]c23)cn1 [Example 33]	74%
CC(C)Nc1ccc(S(=O)(=O)Nc2cccc3c(Cl)c[nH]c23)cn1 [Example 46]	84%
CS(=O)(=O)NCc1ccc(S(=O)(=O)Nc2cccc3c(Cl)c[nH]c23)cc1 [Example 53]	86%
CS(=O)(=O)Cc1ccc(S(=O)(=O)Nc2cccc3c(Cl)c[nH]c23)cc1 [Example 73]	78%

Same assay, conditions: Mus musculus, HCT-116, ip, 504 h; 100 mg/kg/day i.p., once a day for 4 days; nude mice; tumor weight on 21st day; read-out: Growth inhibition ratio

Structure (SMILES)	inhibition in vivo at 100 mg/kg
CS(=O)(=O)Nc1ccc(S(=O)(=O)Nc2cccc3c(Cl)c[nH]c23)cc1 [Example 4]	97%
NS(=O)(=O)c1ccc(S(=O)(=O)Nc2ccc(Cl)c3c(Cl)c[nH]c23)cc1 [Example 21]	95%
CS(=O)(=O)c1ccc(S(=O)(=O)Nc2cccc3c(Cl)c[nH]c23)cc1 [Example 23]	87%
N#Cc1ccc(S(=O)(=O)Nc2cccc3c(C#N)c[nH]c23)cc1 [Example 28]	77%
N#Cc1c[nH]c2c(NS(=O)(=O)c3ccc(N)nc3)cccc12 [Example 37]	93%
CNC(=O)c1ccc(S(=O)(=O)Nc2cccc3c(Cl)c[nH]c23)cc1 [Example 72]	87%
